Data reported in the NIST ThermoML archive (doi:10.1016/j.fluid.2013.06.044).
± gives the expanded uncertainty stated by the source.

How the values were obtained:
[1] = Liquid, Closed cell (Static) method
[2] = refractive index (Na D-line) (dimensionless); details: 298.15 K; 101.33 kPa; Liquid; Standard Abbe refractometry

| vapor or sublimation pressure ([1]; 336.67 K) [kPa] | vapor or sublimation pressure ([1]; 350.33 K) [kPa] | vapor or sublimation pressure ([1]; 350.35 K) [kPa] | vapor or sublimation pressure ([1]; 350.41 K) [kPa] | refractive index [2] | vapor or sublimation pressure ([1]; 350.4 K) [kPa] | vapor or sublimation pressure ([1]; 350.36 K) [kPa] | SMILES |
| --- | --- | --- | --- | --- | --- | --- | --- |
| 232.9 ± 1 | 340.4 ± 1.4 | 340.3 ± 0.9 | 340.4 ± 0.9 | 1.43127 ± 0.00031 |  |  | CSC [2-thiapropane] |
| 1576.5 ± 6.2 |  |  |  |  |  |  | COC [dimethyl ether] |
|  |  |  |  | 1.35959 ± 0.00037 | 96.5 ± 0.9 |  | CCO [ethanol] |
|  |  |  |  | 1.3589 ± 0.00036 |  | 196 ± 1 | COC(C)=O [methyl ethanoate] |
